What was measured:
[1] = tested on: CMV; test: Exposure–response analysis of efficacy, key secondary endpoint: CMV viremia clearance and symptom control at week 8 maintained through week 16 (SOLSTICE); assay type: in vivo, human
Procedure: The exposure–response analyses for maribavir were based on data collected from transplant recipients with CMV infections that were refractory to treatment with ganciclovir, valganciclovir, foscarnet, or cidofovir in the phase 3 SOLSTICE study (ClinicalTrials.gov: NCT02931539). SOLSTICE was a multicenter, open-label, active-controlled study in which patients were randomized 2:1 to receive maribavir 400 mg BID or IAT for 8 weeks, with 12 weeks of follow-up. The primary endpoint was confirmed CMV clearance at the end of week 8, and the key secondary endpoint was achievement of CMV clearance and symptom control at the end of week 8, maintained through week 16. TE CMV mutation conferring resistance to maribavir was assessed as an exploratory endpoint. Full details of the SOLSTICE study have been published previously.
Posterior Bayes parameters of the final PopPK model were used to derive rich concentration–time profiles for maribavir. Actual dosing history and factors affecting the PK of maribavir (i.e., body weight and time-varying presence of strong CYP3A4 inhibitors or strong CYP3A4 inducers) were considered in the predictions.
Data set preparation, exploration, visualization of the data and exposure-response analyses were performed using R® (version 4.0.5 for efficacy and resistance analyses; version 4.0.2 for safety analysis) with comprehensive R® archive network (CRAN) and Certara Strategic Consulting (CSC) package. Firth correction on logistic regression was done based on library “logistf”. Logistic regressions with log-linear exposure effect or Emax exposure effect were performed using NONMEM Version VII (version 7.4).
Maribavir exposure parameters (AUCss, Cmax.ss, and Ctrough.ss) were combined with the primary and key secondary efficacy endpoints, and with TE CMV mutations conferring resistance to maribavir from the SOLSTICE study. The following covariates were included in the dataset to identify potential influencing factors: transplant type (HCT, SOT); CMV DNA level (high, intermediate, low) at baseline; symptom status (symptomatic or asymptomatic) at baseline; CMV resistant at baseline (yes, no); donor (D) and recipient (R) CMV serostatus (D+/R−, D+/R+, or D−/R+, D−/R−); antilymphocyte use (yes, no); immune function status as measured by total white blood cells from hematology panel at baseline; CMV-specific CD4 + CD69 + and CD8 + CD69 + T cells from immune function assay as continuous variables at baseline; enrolling region (North America, Europe, Asia Pacific); prior use of CMV prophylaxis (yes, no); age (as a continuous parameter) and age group (12 to < 18 years; 18 to < 45 years; 45 to < 65 years; ≥65 years); sex (male, female); race and ethnicity; TE CMV maribavir-resistant mutations (yes, no); and temporal identification of maribavir resistance (no, on maribavir treatment, post-maribavir treatment).
The exposure–response analyses were performed using a logistic regression model whereby a response can be defined as 0 (non-responder) or 1 (responder). Logistic regression analyses were performed to explore potential associations with maribavir exposure and the probability of response. The logistic regression model had the following form, assuming that maribavir exposure is included in the model:1 [drawing 1]
Pi is the probability of the event in the ith patient and α is the baseline Ln (odds) of the event. The model assumes a linear exposure effect on logit scale, with the parameter α representing the intercept, while β1 represents the slope linking the exposure parameter (X1) of maribavir (AUCss, Cmax.ss, and Ctrough.ss) to the response. The statistical significance of α and β1 was tested in the logistic regression models with a p value of < 0.05, and 95% CIs were provided for each parameter. The odds ratio (OR) for β1 was derived for a specific unit increment of the PK parameter. […]

[2] = design: method as in PMID 31532960, PMID 30329038; settings: doses up to 1200 mg BID, cited from earlier work
[3] = key secondary endpoint, reference <0.5%

CC(C)Nc1nc2cc(Cl)c(Cl)cc2n1[C@H]1O[C@@H](CO)[C@H](O)[C@@H]1O [maribavir]
Proportion of responders, key secondary endpoint ([1]; 1st quartile of AUCss): 31%
Proportion of responders, key secondary endpoint ([1]; 2nd quartile of AUCss): 25%
Proportion of responders, key secondary endpoint ([1]; 3rd quartile of AUCss, n = 9): 16%
Proportion of responders, key secondary endpoint ([1]; 4th quartile of AUCss, n = 3): 5%
Probability of being a responder, key secondary endpoint ([1]; baseline CD8 + CD69 + cell count ≥ 2%, otherwise reference, AUCss 200 µg∙h/mL): 77.9%
Probability of being a responder, key secondary endpoint ([1]; developed TE CMV maribavir-resistant mutation, CD8 + CD69 + < 0.5%, low CMV DNA, no prior prophylaxis, AUCss 200 µg∙h/mL): 2.5%
Patients meeting key secondary endpoint (clearance and symptom control at week 8, maintained through week 16) ([1]; exposure–response population n = 231, 400 mg BID, 44 patients): 19%
Probability of being a responder, key secondary endpoint ([1]; intermediate/high CMV DNA levels, otherwise reference, AUCss 200 µg∙h/mL): 19.7%
Logistic regression Estimate (SE): Intercept ([1]; key secondary endpoint): 0.814 (0.543)
OR (95% CI): prior use of CMV prophylaxis ([1]; key secondary endpoint): 0.441 (0.191, 0.969)
OR (95% CI): treatment-emergent CMV mutation conferring resistance to maribavir ([1]; key secondary endpoint): 0.0381 (2.97×10^–4, 0.284)
OR (95% CI): AUCss of maribavir ([1]; key secondary endpoint, increment of 50 µg·h/mL): 0.740 (0.611, 0.870)
Logistic regression Estimate (SE): baseline CD8+CD69+ cell count ≥2% [1, 3]: 1.65 (0.552)
OR (95% CI): baseline CD8+CD69+ cell count not reported [1, 3]: 0.899 (0.326, 2.34)
OR (95% CI): baseline CD8+CD69+ cell count ≥0.5% to <2% [1, 3]: 0.594 (0.159, 1.88)
OR (95% CI): baseline CD8+CD69+ cell count ≥2% [1, 3]: 5.18 (1.82, 15.9)
OR (95% CI): baseline CMV DNA level intermediate/high ([1]; key secondary endpoint, reference low): 0.363 (0.129, 0.910)
Relationship between maribavir exposure (AUCss) and probability of response for the key secondary endpoint ([1]; p = 0.001): negative relationship
Probability of being a responder, key secondary endpoint ([1]; prior use of CMV prophylaxis, otherwise reference, AUCss 200 µg·h/mL): 23.0%
Probability of being a responder, key secondary endpoint ([1]; reference: no TE mutation, CD8 + CD69 + < 0.5%, low CMV DNA, no prior prophylaxis, AUCss 200 µg∙h/mL): 40.3%
Dose-related myelosuppression [2]: no evidence of dose-related myelosuppression
Incidence of dysgeusia across doses ([2]; transplant recipients with refractory CMV infection): similar

From paper PMC11579209, “Population pharmacokinetics and exposure–response relationships of maribavir in transplant recipients with cytomegalovirus infection” (Journal of Pharmacokinetics and Pharmacodynamics, 2024)
